Columns and labels:
[1] = biological target: T1, DPP4 (dipeptidyl peptidase 4) (Homo sapiens, UniProt P27487); test: Drug degradation assessed as recombinant human DPP4-mediated cleavage by measuring compound remaining after 4 hrs by RP-HPLC analysis; assay type: ADME; settings: read-out: Stability
[2] = Retention time of compound over 30 mins by HPLC analysis; assay type: physicochemical; settings: 0.5 h
[3] = biological target: T1, DPP4 (dipeptidyl peptidase 4); test: Drug degradation assessed as recombinant human DPP4-mediated cleavage by measuring compound remaining after 2 hrs by RP-HPLC analysis; assay type: ADME; settings: read-out: Stability
[4] = biological target: T1, DPP4 (dipeptidyl peptidase 4); test: Drug degradation assessed as recombinant human DPP4-mediated cleavage by measuring compound remaining after 1 hr by RP-HPLC analysis; assay type: ADME; settings: read-out: Stability
[5] = biological target: T1, DPP4 (dipeptidyl peptidase 4); test: Half life of compound assessed as recombinant human DPP4-mediated cleavage by RP-HPLC analysis; assay type: ADME
[6] = biological target: T1, DPP4 (dipeptidyl peptidase 4); test: Drug degradation assessed as recombinant human DPP4-mediated cleavage by measuring compound remaining after 8 hrs by RP-HPLC analysis; assay type: ADME; settings: read-out: Stability
[7] = biological target: T1, DPP4 (dipeptidyl peptidase 4); test: Drug degradation assessed as recombinant human DPP4-mediated cleavage by measuring compound remaining after 12 hrs by RP-HPLC analysis; assay type: ADME; settings: read-out: Stability

T1 sequence (P27487 whole entry): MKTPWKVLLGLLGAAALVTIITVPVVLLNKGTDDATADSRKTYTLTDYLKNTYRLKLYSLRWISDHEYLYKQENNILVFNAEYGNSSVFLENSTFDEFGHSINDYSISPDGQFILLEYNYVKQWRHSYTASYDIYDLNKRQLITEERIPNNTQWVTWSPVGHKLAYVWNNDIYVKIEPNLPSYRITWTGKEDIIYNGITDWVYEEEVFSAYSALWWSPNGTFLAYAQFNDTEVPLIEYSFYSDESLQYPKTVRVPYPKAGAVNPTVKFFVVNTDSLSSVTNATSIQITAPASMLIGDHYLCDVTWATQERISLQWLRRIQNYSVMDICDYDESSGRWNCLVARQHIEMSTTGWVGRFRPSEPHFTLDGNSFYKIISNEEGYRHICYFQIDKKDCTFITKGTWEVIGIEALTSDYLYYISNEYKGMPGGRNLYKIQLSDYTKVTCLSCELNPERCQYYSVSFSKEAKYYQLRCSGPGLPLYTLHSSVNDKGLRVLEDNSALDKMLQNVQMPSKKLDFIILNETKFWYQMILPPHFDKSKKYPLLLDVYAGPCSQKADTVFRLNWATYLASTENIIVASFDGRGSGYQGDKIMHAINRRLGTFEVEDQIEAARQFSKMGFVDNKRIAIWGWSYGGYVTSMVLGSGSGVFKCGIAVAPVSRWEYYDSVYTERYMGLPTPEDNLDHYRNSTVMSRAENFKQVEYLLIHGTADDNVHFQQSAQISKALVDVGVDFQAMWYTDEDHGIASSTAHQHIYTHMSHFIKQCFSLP

Row | SMILES | remaining at 4 h [1] [%] | Retention_time [2] [min] | remaining at 2 h [3] [%] | remaining at 1 h [4] [%] | half-life [5] [min] | remaining at 8 h [6] [%] | remaining at 12 h [7] [%]
1 | CC[C@H](C)[C@H](NC(=O)[C@H](Cc1ccccc1)NC(=O)[C@H](CCC(=O)O)NC(=O)[C@H](CCCCN)NC(=O)[C@H](C)NC(=O)[C@H](C)NC(=O)[C@H](CCC(N)=O)NC(=O)CNC(=O)[C@H](CCC(=O)O)NC(=O)[C@H](CC(C)C)NC(=O)[C@H](Cc1ccc(O)cc1)NC(=O)[C@H](CO)NC(=O)[C@H](CO)NC(=O)[C@@H](NC(=O)[C@H](CC(=O)O)NC(=O)[C@H](CO)NC(=O)[C@@H](NC(=O)[C@H](Cc1ccccc1)N(C)C(=O)[C@@H](NC(=O)CNC(=O)[C@H](CCC(=O)O)NC(=O)[C@H](C)NC(=O)[C@@H](N)Cc1cnc[nH]1)[C@@H](C)O)[C@@H](C)O)C(C)C)C(=O)N[C@@H](C)C(=O)N[C@@H](Cc1c[nH]c2ccccc12)C(=O)N[C@@H](CC(C)C)C(=O)N[C@H](C(=O)N[C@@H](CCCCN)C(=O)NCC(=O)N[C@@H](CCCNC(=N)N)C(=O)O)C(C)C | 42.7 | 14.127 | 66.3 | 79.4 | 208 | 17.6 | 6.1
2 | CC[C@H](C)[C@H](NC(=O)[C@H](Cc1ccccc1)NC(=O)[C@H](CCC(=O)O)NC(=O)[C@H](CCCCN)NC(=O)[C@H](C)NC(=O)[C@H](C)NC(=O)[C@H](CCC(N)=O)NC(=O)CNC(=O)[C@H](CCC(=O)O)NC(=O)[C@H](CC(C)C)NC(=O)[C@H](Cc1ccc(O)cc1)NC(=O)[C@H](CO)NC(=O)[C@H](CO)NC(=O)[C@@H](NC(=O)[C@H](CC(=O)O)NC(=O)[C@H](CO)NC(=O)[C@@H](NC(=O)[C@H](Cc1ccccc1)NC(=O)[C@@H](NC(=O)CNC(=O)[C@H](CCC(=O)O)NC(=O)[C@H](C)NC(=O)[C@@H](N)Cc1c[nH]cn1)[C@@H](C)O)[C@@H](C)O)C(C)C)C(=O)N[C@@H](C)C(=O)N[C@@H](Cc1c[nH]c2ccccc12)C(=O)N[C@@H](CC(C)C)C(=O)N[C@H](C(=O)N[C@@H](CCCCN)C(=O)NCC(=O)N[C@@H](CCCNC(=N)N)C(N)=O)C(C)C |  | 14.611 |  |  |  |  | 
3 | CC[C@H](C)[C@H](NC(=O)[C@H](Cc1ccccc1)NC(=O)[C@H](CCC(=O)O)NC(=O)[C@H](CCCCN)NC(=O)[C@H](C)NC(=O)[C@H](C)NC(=O)[C@H](CCC(N)=O)NC(=O)CNC(=O)[C@H](CCC(=O)O)NC(=O)[C@H](CC(C)C)NC(=O)[C@H](Cc1ccc(O)cc1)NC(=O)[C@H](CO)NC(=O)[C@H](CO)NC(=O)[C@@H](NC(=O)[C@H](CC(=O)O)NC(=O)[C@H](CO)NC(=O)[C@@H](NC(=O)[C@H](Cc1ccccc1)NC(=O)[C@@H](NC(=O)CNC(=O)[C@H](CCC(=O)O)N(C)C(=O)[C@H](C)NC(=O)[C@@H](N)Cc1cnc[nH]1)[C@@H](C)O)[C@@H](C)O)C(C)C)C(=O)N[C@@H](C)C(=O)N[C@@H](Cc1c[nH]c2ccccc12)C(=O)N[C@@H](CC(C)C)C(=O)N[C@H](C(=O)N[C@@H](CCCCN)C(=O)NCC(=O)N[C@@H](CCCNC(=N)N)C(N)=O)C(C)C | 100 | 14.612 | 100 | 100 | > 5760 | 100 | 100

Further lines, results first:

Row | remaining at 4 h [1] [%] | Retention_time [2] [min] | remaining at 2 h [3] [%] | remaining at 1 h [4] [%] | half-life [5] [min] | remaining at 8 h [6] [%] | remaining at 12 h [7] [%] | SMILES
4 | 4.3 | 14.702 | 17.6 | 42.7 | 49.8 | 0 | 0 | CC[C@H](C)[C@H](NC(=O)[C@H](Cc1ccccc1)NC(=O)[C@H](CCC(=O)O)NC(=O)[C@H](CCCCN)NC(=O)[C@H](C)NC(=O)[C@H](C)NC(=O)[C@H](CCC(N)=O)NC(=O)CNC(=O)[C@H](CCC(=O)O)NC(=O)[C@H](CC(C)C)NC(=O)[C@H](Cc1ccc(O)cc1)NC(=O)[C@H](CO)NC(=O)[C@H](CO)NC(=O)[C@@H](NC(=O)[C@H](CC(=O)O)NC(=O)[C@H](CO)NC(=O)[C@@H](NC(=O)[C@H](Cc1ccccc1)NC(=O)[C@@H](NC(=O)CNC(=O)[C@H](CCC(=O)O)NC(=O)[C@H](C)N(C)C(=O)[C@@H](N)Cc1cnc[nH]1)[C@@H](C)O)[C@@H](C)O)C(C)C)C(=O)N[C@@H](C)C(=O)N[C@@H](Cc1c[nH]c2ccccc12)C(=O)N[C@@H](CC(C)C)C(=O)N[C@H](C(=O)N[C@@H](CCCCN)C(=O)NCC(=O)N[C@@H](CCCNC(=N)N)C(N)=O)C(C)C
5 | 33.2 | 14.721 | 55.4 | 69.8 | 162 | 10.7 | 0 | CC[C@H](C)[C@H](NC(=O)[C@H](Cc1ccccc1)NC(=O)[C@H](CCC(=O)O)NC(=O)[C@H](CCCCN)NC(=O)[C@H](C)NC(=O)[C@H](C)NC(=O)[C@H](CCC(N)=O)NC(=O)CNC(=O)[C@H](CCC(=O)O)NC(=O)[C@H](CC(C)C)NC(=O)[C@H](Cc1ccc(O)cc1)NC(=O)[C@H](CO)NC(=O)[C@H](CO)NC(=O)[C@@H](NC(=O)[C@H](CC(=O)O)NC(=O)[C@H](CO)NC(=O)[C@@H](NC(=O)[C@H](Cc1ccccc1)NC(=O)[C@H]([C@@H](C)O)N(C)C(=O)CNC(=O)[C@H](CCC(=O)O)NC(=O)[C@H](C)NC(=O)[C@@H](N)Cc1cnc[nH]1)[C@@H](C)O)C(C)C)C(=O)N[C@@H](C)C(=O)N[C@@H](Cc1c[nH]c2ccccc12)C(=O)N[C@@H](CC(C)C)C(=O)N[C@H](C(=O)N[C@@H](CCCCN)C(=O)NCC(=O)N[C@@H](CCCNC(=N)N)C(N)=O)C(C)C
6 | 32.6 | 14.289 | 55.5 | 75.1 | 145 | 15.1 | 7.5 | CC[C@H](C)[C@H](NC(=O)[C@H](Cc1ccccc1)NC(=O)[C@H](CCC(=O)O)NC(=O)[C@H](CCCCN)NC(=O)[C@H](C)NC(=O)[C@H](C)NC(=O)[C@H](CCC(N)=O)NC(=O)CNC(=O)[C@H](CCC(=O)O)NC(=O)[C@H](CC(C)C)NC(=O)[C@H](Cc1ccc(O)cc1)NC(=O)[C@H](CO)NC(=O)[C@H](CO)NC(=O)[C@@H](NC(=O)[C@H](CC(=O)O)NC(=O)[C@H](CO)NC(=O)[C@@H](NC(=O)[C@H](Cc1ccccc1)NC(=O)[C@@H](NC(=O)CN(C)C(=O)[C@H](CCC(=O)O)NC(=O)[C@H](C)NC(=O)[C@@H](N)Cc1cnc[nH]1)[C@@H](C)O)[C@@H](C)O)C(C)C)C(=O)N[C@@H](C)C(=O)N[C@@H](Cc1c[nH]c2ccccc12)C(=O)N[C@@H](CC(C)C)C(=O)N[C@H](C(=O)N[C@@H](CCCCN)C(=O)NCC(=O)N[C@@H](CCCNC(=N)N)C(N)=O)C(C)C
